# Test results taken from patent US11141432B2, “Materials and methods for increasing immune responses” (Mayo Foundation for Medical Education and Research, priority 2016, dated 2021).
# Where a SMILES comes first, the peptide text is derived from it. The star is where a group is joined. Cbz = O=C(OCc1ccccc1)*; CH2F = FC*
# Experiments:
# [1] = system: antigen stimulated OT-1 cells; experiment: Antigen-induced cytoplasmic and mitochondrial ROS by CM-H2DCFDA and MitoSox staining and flow cytometry; format: cell-based, mice
# Method: Naïve or resting CD8+ T cells obtained from OT-1 PL Rag−/− TCR transgenic mice were stimulated in vitro with its cognate antigen in the presence of B7.1 co-stimulatory molecule, and cytokine IL-12 for 48h. The antigen constitutes sulfate latex microspheres (Life Technologies Cat. No. S37227) bearing DimerX Ig-recombinant dimeric mouse H-2Kb: Ig fusion protein (BD Biosciences, Cat. No. 550750) with recombinant mouse B7-1/CD80 Fc chimeric protein (R&D Systems, Cat. No. 740-B). Short synthetic peptide SIINFEKL (SEQ ID NO:1) at 10 nM concentration (sequence derived from a chicken ovalbumin protein), presented by H-2Kb DimerX serves as the cognate antigen for TCR of CD8+ T cells from OT-1 PL Rag−/−TCR transgenic mice. CD8+ T cells isolated from lymph nodes and/or spleen were stimulated with antigen in the following culture medium: Glutamine-free RPMI (Corning CellGro, Cat. No. 15-040-CV) supplemented with FBS 10%, HEPES 10 mM, NEAA 1 mM, sodium pyruvate 1 mM, glutamine 2 mM, 2-mercaptoethanol 50 μM, and Pen/Strep. […] To determine whether UCP2 plays a role in antigen induced ROS generation and determine its impact on CD8+ T cell clonal expansion, antigen induced cytoplasmic (CROS) and/or mitochondrial ROS (mROS) production was evaluated by CM-H2DCFDA and MitoSox staining and flow cytometry analysis, respectively. […]
# [2] = system: CD8+ T cells; experiment: Phenotyping of effector differentiation markers and transcription factors in CD8+ T cells; format: cell-based, mice; details: CD8+ T cells treated with Genipin
# Method: (§1) Naïve or resting CD8+ T cells obtained from OT-1 PL Rag−/− TCR transgenic mice were stimulated in vitro with its cognate antigen in the presence of B7.1 co-stimulatory molecule, and cytokine IL-12 for 48h. The antigen constitutes sulfate latex microspheres (Life Technologies Cat. No. S37227) bearing DimerX Ig-recombinant dimeric mouse H-2Kb: Ig fusion protein (BD Biosciences, Cat. No. 550750) with recombinant mouse B7-1/CD80 Fc chimeric protein (R&D Systems, Cat. No. 740-B). Short synthetic peptide SIINFEKL (SEQ ID NO:1) at 10 nM concentration (sequence derived from a chicken ovalbumin protein), presented by H-2Kb DimerX serves as the cognate antigen for TCR of CD8+ T cells from OT-1 PL Rag−/−TCR transgenic mice. CD8+ T cells isolated from lymph nodes and/or spleen were stimulated with antigen in the following culture medium: Glutamine-free RPMI (Corning CellGro, Cat. No. 15-040-CV) supplemented with FBS 10%, HEPES 10 mM, NEAA 1 mM, sodium pyruvate 1 mM, glutamine 2 mM, 2-mercaptoethanol 50 μM, and Pen/Strep. T cells were cultured in flat-bottom 96-well plates at 2×105/0.2 ml/well with microspheres at the ratio of 5:1. Genipin was added at 50 μM concentration (based on dose titration that produces minimal cell death) and preincubated with cells for 45 mins before subjecting the CD8+ T cells to antigen stimulation. The CD8+ T cells are cultured and harvested at 4 hours to 48 hours for evaluation by molecular, physiologic and phenotypic characteristics by standard methodologies like flow cytometry based phenotyping, lysis for protein or mRNA derivation using western blot, PCR and metabolic flux analysis. Signal one was provided by MHC Class I (H-2Kb) dimers bearing 1-10 nM of OT-1 cognate peptide (SIINFEKL; SEQ ID NO:1) (Ag). Signal two was provided by 1 μg/ml of recombinant murine B7.1 (co-stimulation) immobilized on inert latex microspheres (serves as artificial antigen presenting cells) in the presence of the third signal; 2 ng/ml of rmIL-12 (cytokine). For antigen stimulation, the naïve T cells and latex microspheres were reacted at a ratio of 5:1 (T cells: microspheres) for various time points and were evaluated for their molecular, physiologic and phenotypic characteristics by standard methodologies including flow cytometry, western blot, PCR and metabolic flux analysis (FIG. 1).
# [3] = system: CD8+ T cells obtained from OT-1 PL Rag−/− TCR transgenic mice; experiment: Proliferation, clonal expansion and apoptosis of antigen-stimulated CD8+ T cells; format: cell-based
# Method: as §1, with “1). To determine whether UCP2 plays a role in antigen induced ROS generation and determine its impact on CD8+ T cell clonal expansion, antigen induced cytoplasmic (CROS) and/or mitochondrial ROS (mROS) production was evaluated by CM-H2DCFDA and MitoSox staining and flow cytometry analysis, respectively. Genetic (si-UCP2) or pharmacological (Genipin) means were used to block UCP2 function.” for “1).”
# [4] = system: CD8+ T cells; experiment: Lipid content / de novo lipid synthesis in antigen-stimulated CD8+ T cells; format: cell-based, mice
# Method: Naïve or resting CD8+ T cells obtained from OT-1 PL Rag−/− TCR transgenic mice were stimulated in vitro with its cognate antigen in the presence of B7.1 co-stimulatory molecule, and cytokine IL-12 for 48h. The antigen constitutes sulfate latex microspheres (Life Technologies Cat. No. S37227) bearing DimerX Ig-recombinant dimeric mouse H-2Kb: Ig fusion protein (BD Biosciences, Cat. No. 550750) with recombinant mouse B7-1/CD80 Fc chimeric protein (R&D Systems, Cat. No. 740-B). Short synthetic peptide SIINFEKL (SEQ ID NO:1) at 10 nM concentration (sequence derived from a chicken ovalbumin protein), presented by H-2Kb DimerX serves as the cognate antigen for TCR of CD8+ T cells from OT-1 PL Rag−/−TCR transgenic mice. CD8+ T cells isolated from lymph nodes and/or spleen were stimulated with antigen in the following culture medium: Glutamine-free RPMI (Corning CellGro, Cat. No. 15-040-CV) supplemented with FBS 10%, HEPES 10 mM, NEAA 1 mM, sodium pyruvate 1 mM, glutamine 2 mM, 2-mercaptoethanol 50 μM, and Pen/Strep. T cells were cultured in flat-bottom 96-well plates at 2×105/0.2 ml/well with microspheres at the ratio of 5:1. Genipin was added at 50 μM concentration (based on dose titration that produces minimal cell death) and preincubated with cells for 45 mins before subjecting the CD8+ T cells to antigen stimulation. […]
# [5] = system: CD8+ T cells; experiment: Metabolic flux analysis (ECAR/OCR, spare respiratory capacity) of antigen-stimulated CD8+ T cells; format: cell-based, mice; details: antigen stimulation in the presence of Genipin, FIG. 4A
# Method: Naïve or resting CD8+ T cells obtained from OT-1 PL Rag−/− TCR transgenic mice were stimulated in vitro with its cognate antigen in the presence of B7.1 co-stimulatory molecule, and cytokine IL-12 for 48h. The antigen constitutes sulfate latex microspheres (Life Technologies Cat. No. S37227) bearing DimerX Ig-recombinant dimeric mouse H-2Kb: Ig fusion protein (BD Biosciences, Cat. No. 550750) with recombinant mouse B7-1/CD80 Fc chimeric protein (R&D Systems, Cat. No. 740-B). Short synthetic peptide SIINFEKL (SEQ ID NO:1) at 10 nM concentration (sequence derived from a chicken ovalbumin protein), presented by H-2Kb DimerX serves as the cognate antigen for TCR of CD8+ T cells from OT-1 PL Rag−/−TCR transgenic mice. CD8+ T cells isolated from lymph nodes and/or spleen were stimulated with antigen in the following culture medium: Glutamine-free RPMI (Corning CellGro, Cat. No. 15-040-CV) supplemented with FBS 10%, HEPES 10 mM, NEAA 1 mM, sodium pyruvate 1 mM, glutamine 2 mM, 2-mercaptoethanol 50 μM, and Pen/Strep. […] For antigen stimulation, the naïve T cells and latex microspheres were reacted at a ratio of 5:1 (T cells: microspheres) for various time points and were evaluated for their molecular, physiologic and phenotypic characteristics by standard methodologies including flow cytometry, western blot, PCR and metabolic flux analysis (FIG. 1).
# [6] = UCP2 inhibited OT-1 cells, FIG. 3C
compound,measurement,setting,value
COC(=O)C1=CO[C@@H](O)[C@@H]2C(CO)=CC[C@H]12 [Genipin],mitochondrial reactive oxygen species (ROS),[1]; Genipin treated,increase
same,PD-1 and Lag3 expression,[2],increases
same,Blimp1/BC16 ratio,[2]; FIG. 5,increasing
same,Tbet/Eomes ratio,[2]; FIG. 5,increasing
same,"expression of IFNγ, Gzmb, and effector cell markers KLRG1 and CXCR3",[2]; FIG. 5,increased expression
same,proliferation of activated CD8+ T cells,"[3]; Genipin treated, 50 μM, FIG. 3A",limited proliferation
same,apoptosis (contraction in clonal expansion),"[3]; Genipin treated, FIG. 3B",increased apoptosis
same,lipid content (de novo lipid synthesis),"[4]; antigen stimulation in the presence of Genipin, FIG. 4B",increased lipid content
same,ECAR/OCR ratio (glycolysis over mitochondrial respiration),[5],higher
same,spare respiratory capacity (SRC),[5],very low
CC1(C)CC(NC(=O)C[P+](c2ccccc2)(c2ccccc2)c2ccccc2)CC(C)(C)N1[O] [MitoTempo],mitochondrial ROS after quenching with mitochondrially targeted antioxidant,[1]; [6],reverses ROS
same,cell proliferation and cell contraction after quenching of mitochondrial ROS,[3]; [6],restored
SML0068,lipid synthesis on blocking cytoplasmic export of citrate from the mitochondria,"[4]; UCP2 inhibited cells, FIG. 4D",reduced lipid synthesis
CC(NC(=O)C(NC(=O)OCc1ccccc1)C(C)C)C(=O)NC(CC(=O)O)C(=O)CF (stereo not drawn) [ZVAD] (Cbz-Val-Ala-Asp-CH2F; configuration not given here),Genipin-induced contraction in clonal expansion on addition of pan caspase inhibitor,"[3]; added to Genipin treated cells, FIG. 3B",can be reversed
